Measurements reported in patent publication US6677316B2, “Adenosine derivatives and methods of administration” (SmithKline Beecham Corporation, priority 1998, dated 2004).

Assays:
[1] = biological target: T1, human adenosine A3 receptor (Homo sapiens, UniProt P0DMS8); assay: Reporter gene assay (CRE/SPAP) in CHO cells, agonist potency relative to NECA, adenosine A3 receptor; type: cell-based; parameters: key: equipotent concentration ratio, NECA = 1; details: ECR = equipotent concentration ratio relative to NECA = 1, inhibition of forskolin-stimulated SPAP production
T1 construct: expressed in transfected cells; host or cells: Chinese hamster ovary (CHO) cells with CRE/SPAP/HYG reporter elements
T1 sequence (P0DMS8 1-318): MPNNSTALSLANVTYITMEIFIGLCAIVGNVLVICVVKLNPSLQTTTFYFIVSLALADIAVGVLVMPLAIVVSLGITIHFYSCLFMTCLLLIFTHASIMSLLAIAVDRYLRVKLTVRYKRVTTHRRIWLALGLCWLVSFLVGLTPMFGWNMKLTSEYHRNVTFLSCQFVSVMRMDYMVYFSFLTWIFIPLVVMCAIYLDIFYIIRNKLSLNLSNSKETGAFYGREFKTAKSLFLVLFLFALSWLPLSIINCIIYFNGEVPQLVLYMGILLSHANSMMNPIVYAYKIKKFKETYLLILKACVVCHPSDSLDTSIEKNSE
Method: (§1) Reporter Gene Experiments
(§2) Agonist activity was measured in Chinese hamster ovary (CHO) cells containing the CRE/SPAP/HYG (CRE=cyclic AMP response element; HYG=hygromycin resistance; SPAP=secreted placental alkaline phosphatase) reporter gene elements, which upon stimulation of cAMP levels produced SPAP. A cell line was used, which was stably transfected with either the human adenosine A1 receptor or the human adenosine A3 receptor in addition to the above elements. Cells were plated out in 96-well plates in culture medium and incubated at 37° C. for 1 hour. For measurement of potency, agonists were added to the appropriate wells at a concentration range of approximately 10^−10- 10^−5M. 15Min later, cAMP levels were stimulated by addition of a maximal concentration of forskolin. All cells were then incubated for a further 5 hours at 37° C., and cooled to room temperature, after which a substrate for the phosphatase (para-nitrophenol phosphate, pNPP), which is converted by SPAP to a coloured reagent) was then added and the 96-well -plates were read in a plate reader. From these readings, the concentration-dependence of the inhibition by the agonist for forskolin-stimulated SPAP production can be calculated. One of the agonists tested on each 96-well plate was the standard non-selective agonist, N-ethylcarboxamidoadenosine (NECA), and the potency of all test agonists is expressed relative to that of the NECA standard.
(§3) (ECR=equipotent concentration ratio relative to NECA=1)

[2] = biological target: T2, human adenosine A1 receptor (Homo sapiens, UniProt P30542); assay: Reporter gene assay (CRE/SPAP) in CHO cells, agonist potency relative to NECA, adenosine A1 receptor; type: cell-based; parameters: key: equipotent concentration ratio, NECA = 1; details: ECR = equipotent concentration ratio relative to NECA = 1, inhibition of forskolin-stimulated SPAP production
T2 construct: expressed in transfected cells; host or cells: Chinese hamster ovary (CHO) cells with CRE/SPAP/HYG reporter elements
T2 sequence (P30542 1-326): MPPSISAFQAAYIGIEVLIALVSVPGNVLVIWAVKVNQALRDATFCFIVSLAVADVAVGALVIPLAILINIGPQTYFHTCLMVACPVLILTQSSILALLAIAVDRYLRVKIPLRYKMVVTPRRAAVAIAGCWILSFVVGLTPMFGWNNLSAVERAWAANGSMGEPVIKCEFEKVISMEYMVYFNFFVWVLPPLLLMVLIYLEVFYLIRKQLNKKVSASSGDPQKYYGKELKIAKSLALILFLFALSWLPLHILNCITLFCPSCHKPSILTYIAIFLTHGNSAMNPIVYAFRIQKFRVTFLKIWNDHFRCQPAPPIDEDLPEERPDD
Method: as §1, §2, §3

Compound | Adenosine A3 receptor ECR* [1] | Adenosine A1 receptor ECR* [2]
CC(C)c1noc([C@H]2O[C@@H](n3cnc4c(NC5CC5)ncnc43)[C@H](O)[C@@H]2O)n1 [Example 51, (2R,3R,4S,5S)-2-[6-(cyclopropylamino)-9H-purin-9-yl]-5-(3-isopropyl-1,2,4-oxadiazol-5-yl)tetrahydrofuran-3,4-diol] | 587.75 | 7.56
CC(C)c1nnc([C@H]2O[C@@H](n3cnc4c(NC5CCOCC5)ncnc43)[C@H](O)[C@@H]2O)o1 [Example 6, (2S,3S,4R,5R)-2-(5-Isopropyl-[1,3,4]oxadiazol-2-yl)-5-[6-(tetrahydro-pyran-4-ylamino)-purin-9-yl]-tetrahydro-furan-3,4-diol] | 134 | 1.71
CCc1cc([C@H]2O[C@@H](n3cnc4c(NC(CC)CC)nc(Cl)nc43)[C@H](O)[C@@H]2O)no1.O=CO [Example 163, (2R,3R,4S,5R)-2-{2-chloro-6-[(1-ethylpropyl)amino]-9H-purin-9-yl}-5-(5-ethylisoxazol-3-yl)tetrahydrofuran-3,4-diol Formate] | 232 | 1.34
O[C@@H]1[C@H](O)[C@@H](c2nnc(C(F)(F)F)o2)O[C@H]1n1cnc2c(NC3CCCC3)ncnc21 [Example 178, (2R,3R,4S,5S)-2-[6-(cyclo-pentylamino)-9H-purin-9-yl]-5-[5-(trifluoromethyl)-1,3,4-oxadiazol-2-yl]-tetrahydrofuran-3,4-diol] | >471 | 7.42
CCC(CC)Nc1nc(Cl)nc2c1ncn2[C@@H]1O[C@H](c2nc(C3CC3)no2)[C@@H](O)[C@H]1O.O=CO.O=CO [Example 133, (2R,3R,4S,5S)-2-{2-chloro-6-[(1-ethylpropyl)amino]-9H-purin-9-yl}-5-(3-cyclopropyl-1,2,4-oxadiazol-5-yl)tetrahydrofuran-3,4-diol formate (1:2)] | 466.92 | 25.47
CCOC(=O)N1CCC(Nc2ncnc3c2ncn3[C@@H]2O[C@H](c3nnc(C(F)(F)F)o3)[C@@H](O)[C@H]2O)CC1 [Example 180, ethyl 4-[(9-{(2R,3R,4S,5S)-3,4-dihydroxy-5-[5-(trifluoromethyl)-1,3,4-oxadiazol-2-yl]-tetrahydrofuran-2-yl}-9H-purin-6-yl)amino]-piperidine-1-carboxylate] | >471 | 18.1
CC(C)(C)c1nnc([C@H]2O[C@@H](n3cnc4c(Nc5ccc(F)cc5Cl)ncnc43)[C@H](O)[C@@H]2O)o1 [Example 116, (2S,3S,4R,5R)-2-[5-(tert-butyl)-1,3,4-oxadiazol-2-yl]-5-[6-(2-chloro-4-fluoroanilino)-9H-purin-9-yl]tetrahydrofuran-3,4-diol] | 955 | 27.26
Cc1cnc([C@H]2O[C@@H](n3cnc4c(Nc5ccc(F)cc5Cl)nc(Cl)nc43)[C@H](O)[C@@H]2O)o1 [Example 143, (2R,3R,4S,5S)-2-[2-chloro-6-(2-chloro-4-fluoroanilino)-9H-purin-9-yl]-5-(5-methyl-1,3-oxazol-2-yl)tetrahydrofuran-3,4-diol] | >74.1 | 19.6

Next, values leading:

Adenosine A3 receptor ECR* [1] | Adenosine A1 receptor ECR* [2] | Compound
321 | 23.26 | CC(C)(C)c1noc([C@H]2O[C@@H](n3cnc4c(N[C@H]5CCC[C@@H]5O)ncnc43)[C@H](O)[C@@H]2O)n1 [Example 21, (2S,3S,4R,5R)-2-(3-tert-Butyl-[1,2,4]oxadiazol-5-yl)-5-[6-(2S-hydroxy-cyclopent-(S)-ylamino)-purin-9-yl]-tetrahydro-furan-3,4-diol]
154 | 2.83 | CC(C)(C)c1cc([C@H]2O[C@@H](n3cnc4c(NC5CCS(=O)(=O)CC5)ncnc43)[C@H](O)[C@@H]2O)on1 [Example 119, (2S,3S,4 R,5R)-2-[3-(tert-butyl)isoxazol-5-yl]-5-{6-[(1,1-dioxidotetrahydro-2H-thiopyran-4-yl)amino]-9H-purin-9-yl}tetrahydrofuran-3,4-diol]
>22.4 | 0.53 | Cc1nnc([C@H]2O[C@@H](n3cnc4c(N[C@H]5CCC[C@@H]5O)ncnc43)[C@H](O)[C@@H]2O)o1 [Example 132, (2R,3R,4S,5S)-2-(6-{[(1 S,2S)-2-hydroxycyclopentyl]amino}-9H-purin-9-yl)-5-(5-methyl-1,3,4-oxadiazol-2-yl)tetrahydrofuran-3,4-diol]
199.01 | 0.15 | CCc1nnc([C@H]2O[C@@H](n3cnc4c(NC(C)C)ncnc43)[C@H](O)[C@@H]2O)o1 [Example 131, (2S,3S,4R,5R)-2-(5-ethyl-1,3,4-oxadiazol-2-yl)-5-[6-(isopropylamino)-9H-purin-9-yl]tetrahydrofuran-3,4-diol]
228 | 10.64 | CC(C)(C)c1nnc([C@H]2O[C@@H](n3cnc4c(NC5CCOCC5)ncnc43)[C@H](O)[C@@H]2O)[nH]1 [Example 139, (2R,3S,4R,5R)-2-[5-(tert-butyl)-4H-1,2,4-triazol-3-yl]-5-[6-(tetrahydro-2H-pyran-4-ylamino)-9H-purin-9-yl]tetrahydrofuran-3,4-diol]
327 | 29.47 | O[C@@H]1[C@H](O)[C@@H](c2nc(C3CC3)no2)O[C@H]1n1cnc2c(Nc3ccc(Cl)cc3F)ncnc21 [Example 62, (2R,3R,4S,5S)-2-[6-(4-chloro-2-fluoroanilino)-9H-purin-9-yl]-5-(3-cyclopropyl-1,2,4-oxadiazol-5-yl)tetrahydrofuran-3,4-diol]
715.31 | 20.78 | CNS(=O)(=O)CCNc1ncnc2c1ncn2[C@@H]1O[C@H](c2nc(C(C)C)no2)[C@@H](O)[C@H]1O [Example 54, 2-({9-[(2R,3R,4S,5S)-3,4-dihydroxy-5-(3-isopropyl-1,2,4-oxadiazol-5-yl)tetrahydrofuran-2-yl]-9H-purin-6-yl}amino)-N-methylethanesulfonamide]
21.62 | 0.21 | CNS(=O)(=O)CCNc1ncnc2c1ncn2[C@@H]1O[C@H](c2ncc(C)o2)[C@@H](O)[C@H]1O [Example 127, 2-({9-[(2R,3R,4S,5S)-3,4-dihydroxy-5-(5-methyl-1,3-oxazol-2-yl)tetrahydrofuran-2-yl]-9H-purin-6-yl}amino)-N-methylethanesulfonamide]
507 | 4.19 | CCOC(=O)N1CCC(Nc2ncnc3c2ncn3[C@@H]2O[C@H](c3nc(C)no3)[C@@H](O)[C@H]2O)CC1 [Example 37, ethyl 4-({9-[(2R,3R,4S,5S)-3,4-dihydroxy-5-(3-methyl-1,2,4-oxadiazol-5-yl)tetrahydrofuran-2-yl]-9H-purin-6-yl}amino)piperidine-1-carboxylate]
417.37 | 4.09 | CC(C)c1nnc([C@H]2O[C@@H](n3cnc4c(Nc5ccc(F)cc5Cl)ncnc43)[C@H](O)[C@@H]2O)[nH]1 [Example 68, (2R,3R,4S,5R)-2-[6-(2-chloro-4-fluoroanilino)-9H-purin-9-yl]-5-(5-isopropyl-4H-1,2,4-triazol-3-yl)tetrahydrofuran-3,4-diol]
